Reference: US8748566B2, “Pharmacologically active antiviral peptides and methods of use” (priority 2000, dated 2014)
Peptide text beside a SMILES is read from it. * marks the point of attachment. Biotin = O=C1N[C@H]2[C@H](CS[C@H]2CCCCC(=O)*)N1; Ahx = NCCCCCC(=O)O

Assays:
Assay type in all cases: cell-based
hrR3 [1] = assay: LacZ+ virus (hrR3) entry assay; details: Table 3; read-out: Entry Blocking Activity (IC50)
Description: Confluent Vero cell cultures in 96-well microtiter plates were switched to Hepes-buffered serum-free DMEM, cooled on ice to 4° C. for 30 min, and infected with hrR3 for 1 hour at 4° C. in 40 μl of medium. Unattached virus was removed by rinsing with ice-cold medium. Treatments with antiviral peptide SEQ ID NO:1, referred to as EB, or a control peptide which comprised the RRKK tetra-peptide (SEQ ID NO:16) attached to a scrambled version of the membrane transiting peptide RRKKLAALPLVLAAPLAVLA (SEQ ID NO:17) (referred to as EBX), or mock-treatments with peptide-free medium were carried out in serum-free DMEM as indicated. Virus entry was initiated by transferring cultures to 37° C. To inactivate any remaining extracellular virus, cultures were rinsed with PBS and exposed to low pH citrate buffer (40 mM citric acid, 10 mM KCl, 135 mM NaCl, pH 3.0, according to Highlander et al., J. Virol. 61:3356 (1987), for 1 min at 23° C. The citrate was rinsed off with PBS and cultures were maintained in serum-supplemented DMEM until they were fixed with 0.5% gluteraldehyde in 5×PBS for 30 min at 23° C., stained for β-galactosidase activity for 1 hour or overnight at 23° C. with X-gal (Fisher Biotech; BP 1615-1) in 1×PBS containing […], 1.3 mM K4Fe(CN)6, and 1.3 mM K3Fe(CN)6, and scored for the presence of blue lacZ^+ cells.
In these studies, the hrR3 virus was pre-adsorbed to cells for 1 hour at 4° C. before ice cold 25 μM EB or EBX were added in serum-free DMEM. After an additional 1 hour at 4° C., cultures were shifted to 37° C. to initiate virus entry. At 15 min intervals following the temperature shift, any virus remaining outside the cells was inactivated by washing the cultures with low pH citrate buffer. Cultures were then rinsed and returned to peptide-free serum-supplemented DMEM until they were fixed and stained for f-galactosidase 8 hours after the temperature shift.
This conclusion is strengthened by the finding that the EB-sensitive phase of infection with pre-adsorbed virus clearly precedes expression of lacZ genes in hrR3 infected cells (FIG. 7A). Again, hrR3 was pre-adsorbed to cells for 1 hour at 4° C., unattached virus was rinsed off, and cells were kept for an additional hour at 4° C. Cultures were then transferred to 23° C. for 30 min before they were switched to 37° C. The more gradual change to 37° C. allowed cell layers to remain intact through subsequent frequent medium changes. Immediately following viral adsorption, cells were treated with 50 μM EB for 1 hour periods at consecutive 1 hour intervals. Between 1 and 4 hours post-infection, virus entry was inhibited by 70-80%. […] Parallel cultures were immediately fixed after mock-treatments and stained with X-gal. In these cultures, blue (lacZ^+) cells first appeared 7 hours post-infection and their number increased nearly linearly for the next 3 hours (FIG. 7A, (∘)). By 7 hours post-infection, EB ceased to be inhibitory.

hrR3 [2] = assay: Virucidal assay
Description: […] The treated virus was diluted 200-fold with serum-supplemented DMEM and assayed for infectivity approximately 1 hour later in microtiter wells seeded with Vero cells (3.5×10^4 cells/well) 1 d earlier. Forty or 100 microliter volumes of diluted virus were adsorbed for 1 or 2 h at 37° C. and lacZ^+ cells were scored 8 hours later. In some experiments, aliquots of diluted virus were first dialyzed (Spectra/Por; MWCO 12-14,000) overnight at 4° C. against a 60-fold excess volume of Hepes-buffered serum-supplemented DMEM or forced by syringe through 0.22 μm membranes (Millex-GV; Millipore) before the remaining infectious virus was assayed.

virus = assay: Anti-free virus activity (Table 3)
HSV-1 KOS [3] = assay: Plaque reduction assay, HSV-1 KOS infection of Vero cell cultures; details: for antiviral activity compared with EB: plaque reduction (FIG. 1D, FIG. 2)
Description: The procedures for growing Vero cells and preparing high titer stocks of HSV-1 KOS as described in (Grau et al., Invest. Ophthal. and Vis. Sci. 30: 2474 (1989)) were utilized. Vero cells were maintained in carbonate-buffered DMEM supplemented with 5% calf serum and 5% fetal bovine serum (regular medium). For some studies, cells were switched to serum-free DMEM buffered with 25 mM Hepes (pH 7.4) and allowed to adapt to that medium for 30 min prior to experimental treatments. Vero cells were seeded into wells (0.28 cm^2) of microtiter plates either at 3.5×10^4 cells/well for use 1 day later (8×10^4 cells/well) or at 1×10^4 cells/well for use 3 days later (2×10^5 cells/well).
Confluent Vero cell cultures in microtiter plates were infected for 1 hour at 37° C. in 40 μl of medium. Except where indicated, peptide treatments in 40 μl of medium lasted from 1 hour before through 1 hour after infection. At the end of the adsorption period, the cultures were re-fed with 100 μl of regular medium. Plaque formation was scored 2 days later and the number of plaques scored per well was normalized to the number counted in the absence of peptide. Using an ocular micrometer, plaque size ([…]) was determined by measuring the largest plaque diameter (L) and the diameter at a 90° angle to that (S). The size of each of the first 40 scored plaques was measured except when a plaque included less than 10 rounded cells or touched the side of the well.

HSV-1 KOS [4] = assay: Yield reduction assay (virus production in infected Vero cells)
Description: Three days post-infection, Vero cell cultures in microtiter plates were frozen (−80° C.) and thawed (37° C.) three times. Cells were suspended by repeated pipetting and microtiter plates were spun for 10 min at 700×g in a Beckman model TJ-6 tabletop centrifuge. The virus-containing supernates were serially diluted in regular medium and titered on Vero cells. Plaques were counted after staining the monolayers with crystal violet as taught by Grau et al., Invest. Ophthalmol. Vis. Sci. 30:2474 (1989).
Vero cell cultures as prepared in Example 1 were infected with HSV-1 and assayed for virus production as described in Example 1. The antiviral activity of an antiviral peptide according to the present invention EB (SEQ ID NO:1) was compared to the antiviral activity of the current HSV antiviral nucleoside standard, acyclovir. The two peptides were added to the Vero cells one hour prior to infection with HSV.

[5] = 37° C., read-out: Virucidal Activity 37° C. (IC50)
[6] = 4° C., read-out: Virucidal Activity 4° C. (IC50)

Molecule | IC50 (hrR3 [1]) | Virucidal Activity 4° C. (IC50) (hrR3 [2]; 4° C.) | IC50 (hrR3 [2]; [5]) | IC50 (virus) | Virucidal Activity 37° C. (IC50) (hrR3 [2]; 37° C.) | further results
CC[C@H](C)[C@H](NC(=O)[C@H](CCCCN)NC(=O)[C@@H](NC(=O)[C@H](CCC(N)=O)NC(=O)[C@H](CCCNC(=N)N)NC(=O)CCCCCNC(=O)CCCC[C@@H]1SC[C@@H]2NC(=O)N[C@@H]21)[C@@H](C)CC)C(=O)N[C@@H](Cc1c[nH]c2ccccc12)C(=O)N[C@@H](Cc1ccccc1)C(=O)N1CCC[C@H]1C(=O)N[C@@H](CC(N)=O)C(=O)N[C@@H](CCCNC(=N)N)C(=O)N[C@@H](CCCNC(=N)N)C(=O)N[C@@H](CCSC)C(=O)N[C@@H](CCCCN)C(=O)N[C@@H](Cc1c[nH]c2ccccc12)C(=O)N[C@@H](CCCCN)C(=O)N[C@@H](CCCCN)C(=O)N1CCC[C@H]1C(=O)NCC(=O)N[C@@H](Cc1ccc(O)cc1)C(=O)N[C@@H](C)C(=O)NCC(=O)N[C@@H](C)C(=O)N[C@H](C(=O)N[C@H](C(=O)N[C@@H](CC(N)=O)C(=O)N[C@@H](CC(=O)O)C(=O)N[C@@H](CC(C)C)C(=O)O)C(C)C)C(C)C [bHOM-9, b-RQIKIWFPNRRMKWKK-9] ({Biotin-Ahx}-RQIKIWFPNRRMKWKKPGYAGAVVNDL-OH) | 9 to 12 µM | None | 115 µM | 6 µM | – | –
CC(C)C[C@H](NC(=O)[C@H](CC(=O)O)NC(=O)[C@H](CC(N)=O)NC(=O)[C@@H](NC(=O)[C@@H](NC(=O)[C@H](C)NC(=O)CNC(=O)[C@H](C)NC(=O)[C@H](Cc1ccc(O)cc1)NC(=O)CNC(=O)[C@@H]1CCCN1C(=O)[C@H](CCCNC(=N)N)NC(=O)[C@H](CCCNC(=N)N)NC(=O)[C@H](CCCNC(=N)N)NC(=O)[C@H](CCC(N)=O)NC(=O)[C@H](CCCNC(=N)N)NC(=O)[C@H](CCCNC(=N)N)NC(=O)[C@H](CCCCN)NC(=O)[C@H](CCCCN)NC(=O)[C@H](CCCNC(=N)N)NC(=O)CNC(=O)[C@H](Cc1ccc(O)cc1)NC(=O)CCCCCNC(=O)CCCC[C@@H]1SC[C@@H]2NC(=O)N[C@@H]21)C(C)C)C(C)C)C(=O)O [bTAT-9, b-YGRKKRRQRRR-9] ({Biotin-Ahx}-YGRKKRRQRRRPGYAGAVVNDL-OH) | 26 µM | None | – | 8 µM | None | –
b-YGRKKRRQRRR-9x [bTAT-9x] | 67 µM | None | – | – | None | –
N=C(N)NCCC[C@H](NC(=O)[C@@H](N)CCCNC(=N)N)C(=O)N[C@@H](CCCCN)C(=O)N[C@@H](CCCCN)C(=O)O [R-R-K-K tetramer, R-R-K-K, reference compound] (H-RRKK-OH; N-terminus and C-terminus assumed) | – | – | – | – | – | antiviral activity (HSV-1 KOS [3]; presence of serum, concentrations as high as 200 μM (FIG. 1A)): no antiviral activity
CC(C)C[C@H](NC(=O)[C@H](C)NC(=O)[C@H](CCCCN)NC(=O)[C@H](CC(C)C)NC(=O)[C@H](C)NC(=O)[C@H](CC(C)C)NC(=O)[C@H](CCCCN)NC(=O)[C@H](CC(C)C)NC(=O)[C@H](C)NC(=O)[C@H](CC(C)C)NC(=O)[C@H](CCCCN)NC(=O)CCCCCNC(=O)CCCC[C@@H]1SC[C@@H]2NC(=O)N[C@@H]21)C(=O)N[C@@H](CCCCN)C(=O)N[C@@H](C)C(=O)N[C@@H](C)C(=O)N[C@@H](CC(C)C)C(=O)N[C@@H](CCCCN)C(=O)N[C@@H](CC(C)C)C(=O)N[C@@H](C)C(N)=O [bKLA, b-KLALKLALKALKAALKLA-amide] | 11 µM | – | – | 4.5 µM | – | IC50 (hrR3 [2]; [6]): 45 µM
NH2-RRKKAAVALLAV LLALLAPP-COOH (H-RRKKAAVALLAVLLALLAPP-OH) [EBPP] | – | – | – | – | – | antiviral activity compared with EB (HSV-1 KOS [3]): twice as active; antiviral activity compared with EB (HSV-1 KOS [4]; yield reduction (FIG. 1E; data not shown)): twice as active
Nc1nc2c(ncn2COCCO)c(=O)[nH]1 [acyclovir, reference compound] | – | – | – | – | – | antiviral activity, EB compared with acyclovir (HSV-1 KOS [4]; added one hour prior to infection, EB statement for concentrations exceeding 10 μM (FIG. 3)): highest antiviral activity at low dosages
RQIKIWFPNRRMKWKK [bHOMd] | 7 µM | None | 115 µM | – | – | –
CC[C@H](C)[C@H](NC(=O)[C@H](CCCCN)NC(=O)[C@@H](NC(=O)[C@H](CCC(N)=O)NC(=O)[C@H](CCCNC(=N)N)NC(=O)CCCCCNC(=O)CCCC[C@@H]1SC[C@@H]2NC(=O)N[C@@H]21)[C@@H](C)CC)C(=O)N[C@@H](Cc1ccccc1)C(=O)N[C@@H](Cc1ccccc1)C(=O)N1CCC[C@H]1C(=O)N[C@@H](CC(N)=O)C(=O)N[C@@H](CCCNC(=N)N)C(=O)N[C@@H](CCCNC(=N)N)C(=O)N[C@@H](CCSC)C(=O)N[C@@H](CCCCN)C(=O)N[C@@H](Cc1ccccc1)C(=O)N[C@@H](CCCCN)C(=O)N[C@@H](CCCCN)C(N)=O [bHOMFF, b-RQIKI F FPNRRMK F KK-amide] ({Biotin-Ahx}-RQIKIFFPNRRMKFKK-NH2) | 40 µM | None | – | 34 µM | None | –
CC(C)C[C@H](NC(=O)[C@H](C)NC(=O)[C@H](CC(C)C)NC(=O)[C@H](CC(C)C)NC(=O)[C@@H](NC(=O)[C@H](C)NC(=O)[C@@H]1CCCN1C(=O)[C@H](CC(C)C)NC(=O)[C@H](CC(C)C)NC(=O)[C@H](C)NC(=O)[C@@H](NC(=O)[C@H](C)NC(=O)[C@H](C)NC(=O)[C@H](CCCCN)NC(=O)[C@H](CCCCN)NC(=O)[C@H](CCCNC(=N)N)NC(=O)[C@H](CCCNC(=N)N)NC(=O)CCCCCNC(=O)CCCC[C@@H]1SC[C@@H]2NC(=O)N[C@@H]21)C(C)C)C(C)C)C(=O)N[C@@H](CC(C)C)C(=O)N[C@@H](C)C(=O)N1CCC[C@H]1C(=O)O [bEB] ({Biotin-Ahx}-RRKKAAVALLPAVLLALLAP-OH) | 15 µM | – | 35 µM | 21 µM | – | antiviral activity compared with EB (HSV-1 KOS [3]): essentially as effective as EB; IC50 (hrR3 [2]; [6]): 110 µM
